From EP4417607A1, “HETEROCYCLIC COMPOUND AS SOS1 INHIBITOR AND USES THEREOF” (Nanjing Zaiming Pharmaceutical Co., Ltd., priority 2021, dated 2023) come the findings set out here.

Series [1] can be described thus: Caco-2 membrane permeability and transport. Type of series: in vitro ADME. Conditions: human, pH 7.4; for Papp A→B at 2 h, 10 µM: Caco-2, apical to basal; for Papp B→A at 2 h, 10 µM: Caco-2, basal to apical. How it is done:
The membrane permeability and transport properties of the compound of the present disclosure were determined using the following method. • I. Experimental materials and instruments • 1. Caco-2 cells (ATCC) • 2. HEPES (Solarbio 804D049), penicillin/streptomycin (Solarbio 20200109), Trypsin/EDTA (Solarbio), and PBS (Solarbio 20200620) • 3. Fetal Bovine Serum (FBS) (Sigma WXBD0055V), lucifer yellow (Sigma MKCJ3738), and NaHCO3 (Sigma SLBZ4647) • 4. Hank's balanced salt solution (Gibco 2085528), non-essential amino acid (NEAA) (Gibco 2211548), and Trypsin/EDTA (Gibco 2120732) • 5. High glucose DMEM (Corning 20319014) • 6. HTS Transwell-96 Well Permeable (Corning, 3391) • 7. Resistance detector (Millipore, Millicell® ERS-2) • 8. Cellometer® Vision (Nexcelom Bioscience) • 9. Infinite 200 PRO microplate reader (Tecan, Infinite M200PRO) • 10. Positive control compound metoprolol (Sinopharm 100084-201403), erythromycin (MCE 84550), and cimetidine (Sinopharm 100158-201406) • 11. ABI QTrap 5500 liquid chromatography-mass spectrometry system • II. Procedures • 1. Caco-2 cell culture • 1) Preparation of transport buffer (HBSS containing 25 mM HEPES, pH 7.4): 5.958 g HEPES and 0.35 g NaHCOs were accurately weighed and dissolved in 900 mL pure water. 100 mL of 10× HBSS was then added and stirred well. The pH was adjusted to 7.4, and the mixture was filtered. • 2) Preparation of Caco-2 cell culture medium: FBS, penicillin, streptomycin, kanamycin, and NEAA were added to a high glucose DMEM (containing L-glutamine) culture medium to prepare a cell culture medium containing 10% FBS, 0.1 mg/mL streptomycin, 100 units penicillin, 0.6 µg/mL kanamycin, and 1× NEAA. • 3) Cells were cultured with a T-75 flask at 37 °C with 5% CO2 in an incubator. The culture medium was discarded when cell density reached 80-90%. The cells were rinsed with 5 mL PBS. 1.5 mL Trypsin/EDTA was added. The mixture was incubated at 37 °C for 5-10 min in an incubator until the cells shed like quicksand. Finally the Trypsin/EDTA was neutralized with a FBS-containing culture medium. • 4) The cell suspension was centrifuged at 120 × g for 10 min, and the supernatant was discarded. • 5) The cells were resuspended in a cell culture medium. The cell suspension was adjusted to a density of 6.86 × 10^5 cells/mL. • 2. Caco-2 cell inoculation • 1) 50 µL of culture medium was added to the Transwell chamber per well. 25 mL of culture medium was added to the lower chamber, and the chamber was preheated at 37 °C for 1 h with 5% CO2 in an incubator. • 2) 50 µL of the cell suspension was added to the preheated Transwell chamber per well at a final density of 2.4 × 10^5 cells/cm^2 • 3) The cells were cultured for 14-18 days. The culture medium was replaced every other day, and the culture medium was replaced within 48 h after the initial inoculation. The culture medium had to be replaced the day before the experiment. • 3. Evaluation of integrity of monolayer cell membrane • 1) The cells fused and differentiated after 14 days of culture and were ready for a transport experiment. • 2) The resistance of the monolayer membrane was measured using a resistance detector. […] Transport experiment • 1) A 10 mM stock solution of the compound of the present disclosure or the positive control compound was diluted with DMSO to give a 2 mM stock solution. The 2 mM stock solution was then diluted with the transport buffer to give a 10 µM working solution of the compound of the present disclosure or the positive control compound. • 2) The Caco-2 cell plate was taken out from the incubator, washed twice with the pre-heated transport buffer, and incubated at 37 °C in an incubator for 30 min. • 3) To determine the transport rate of the compound from the apical end to the basal end (A → B), 108 µL of the working solution of the compound was added to the Transwell chamber (apical end), while 8 µL of the sample was immediately taken from the apical end to 72 µL of the transport buffer. […]

Series [2] deals with H358-SOS2 KO cells. Description: H358-SOS2 KO cell proliferation inhibition (CellTiter-Glo, 3D methylcellulose). Type of series: cell-based. Conditions: 192 h, 8 days, CTG. How it is done:
The effect of the compounds of the present invention on the proliferation of H358 cells with knockout of SOS2 (H358-SOS2 KO, Kyinno Biotechnology Co., Ltd.) was assessed by CellTiter-Glo luminescent cell viability assay kit method. The H358-SOS2 KO cell strain was cultured in complete medium at 37 °C with 5% CO2. A sterilized 1% methylcellulose 3D medium was prepared in advance. Cells in the logarithmic growth phase were harvested and counted using a […]. The cell viability was determined by the trypan blue exclusion method, and the cell viability was kept 90% or more. The cell concentration was adjusted. The cells were uniformly mixed and left to stand. After no visible gas exists in the cell suspension, 180 µL of the cell suspension was added into a 96-well plate at 180 µL/well, and the total number of cells was 2000. The cells in the 96-well plate were incubated at 37 °C with 5% CO2. A diluted test compound was added to each well using a multi-channel pipette. […] The cell plate was placed at room temperature for 20 min to stabilize the luminescence signal. The luminescence value was read, and the data were collected. The data were analyzed using the GraphPad Prism 7.0 software. Dose-response curves were fit to the data using nonlinear S-curve regression, and the IC50 value was calculated from the curves.

Each structure is given as a SMILES string.

For `[2H][C@](C)(Nc1nc(C)nc2c(N3CCOCC3)c(=O)n(C3(CF)CC3)cc12)c1cccc(C(F)F)c1F` [Example 55, (R)-4-((1-(3-(difluoromethyl)-2-fluorophenyl)ethyl-1-d)amino)-6-(1-(fluoromethyl)cyclopropyl)-2-methyl-8-morpholinylpyrido[4,3-d]pyrimidine-7(6H)-one], in series [1] (Caco-2, Papp (B-A)/Papp (A-B)), the efflux ratio is 4.77. Further, in series [1], the Papp A→B at 2 h, 10 µM came out at 50.9 nm/s and the Papp B→A at 2 h, 10 µM was 243 nm/s. The compound also had an IC50 in series [2] of 0.079 µM.
In the case of `Cc1nc(N[C@H](C)c2cccc(C(F)F)c2F)c2cn(C3(CF)CC3)c(=O)c(N3CCOC[C@@H]3C)c2n1` [Example 40, 4-(((R)-1-(3-(difluoromethyl)-2-fluorophenyl)ethyl)amino)-6-(1-(fluoromethyl)cyclopropyl)-2-methyl-8-((S)-3-methylmorpholine)pyrido[4,3-d]pyrimidine-7(6H)-one], the efflux ratio at 2 h, 10 µM in series [1] (Caco-2, Papp (B-A)/Papp (A-B)) turned out to be 13.1. In series [1], this compound registered a Papp A→B at 2 h, 10 µM of 21 nm/s and a Papp B→A at 2 h, 10 µM of 276 nm/s.
